Structures are written as SMILES.

The term melting point denotes the temperature, or range, at which the solid turns liquid. Compound `CC1(C)COC(c2cc(-c3ccncc3)n(-c3ccc(F)cc3)n2)OC1` gave a melting point of 150 to 151 °C.
Turning to `Nc1ccc2c(S(=O)(=O)c3ccccc3)c[nH]c2c1`, the melting point is 144 to 146 °C.
Compound `Cc1ccc(C(=O)C(=O)c2ccc(Br)cc2)cc1` gave a melting point of 132 to 135 °C.
Under `CC(C)(Sc1cc(C(C)(C)C)c(O)c(C(C)(C)C)c1)Sc1cc(C(C)(C)C)c(OCCO)c(C(C)(C)C)c1` stands 146 to 147 °C; under `CC(C)CCN1C(=O)C(NC(=O)Oc2cccc(Br)c2)C(=O)N(c2ccccc2)c2ccc(Cl)cc21` (centres undefined), 144 to 145 °C.
Under `Nc1cc(CC(=O)O)cc2c1NC(C(F)(F)F)CC2` (centres undefined) stands 180 to 181 °C.
As for `CCOc1cc2c(Nc3cc(OC)c(Cl)cc3Cl)c(C#N)cnc2cc1N`, the figure is 230 to 233 °C.
`O=C1Nc2ccccc2N(CCCCCCN2CCCCC2)c2ccccc21` registered a melting point of 124 to 125 °C.
In the case of `Cc1ccc(C2CCN(C[C@H](O)COc3cccc4oc(S(=O)(=O)N(C)C)cc34)CC2)cc1C`, the melting point was 146 to 148 °C.
Compound `O=C(NCCO[N+](=O)[O-])c1ccoc1` returned a melting point of 80 to 82 °C.
In the case of `CC(=O)Oc1ccc(-c2nc3n(c2-c2ccc(OC(C)=O)cc2)CCS3)cc1`, the melting point was 172 to 173 °C.
With `CS(=O)(=O)c1ccc(C(=O)N[C@H]2CC[C@H](CCN3CCN(c4nccc5c4CCO5)CC3)CC2)s1`, the melting point is 229 °C.
Compound `CSc1ncccc1NC(=O)CCCCCSc1nc2ccccc2o1` gave a melting point of 127 to 128 °C.
As for `CC(C)(S)CNc1ccccc1N`, the figure is 38 to 40 °C; as for `CC1Cn2c(nc3ccccc32)NC1=O` (centres undefined), above 260 °C.
The compound `Nc1ccc(Cl)cc1C(=O)C(F)(F)F` had a melting point of 93 to 94 °C.
Compound `CC(C)N1C(=O)NC2(CCN(C(=O)OC(C)(C)C)CC2)C1=O` gave a melting point of 206 to 208 °C.
For the compound `O=C(O)c1ccc(Cl)nc1Nc1ccccc1`, the melting point lay within 181 to 185 °C.
As for `CS(=O)(=O)c1nccc(-c2ccccc2)n1`, the figure is 136 to 137 °C; as for `CC(C)NC(=O)N[C@@H](Cc1ccccc1)[C@H](O)[C@H](O)[C@H](Cc1ccccc1)NC(=O)NC(C)C`, 220 to 222 °C; as for `O=C1CN2Cc3c(ccc(OCC(=O)N(CCO)C4CCCCC4)c3Cl)N=C2N1`, 237 to 239 °C.
As for `O=C(NCCO)c1ccccc1S(=O)(=O)Cc1c(O[C@H](Cn2ccnc2)c2ccccc2)ccc2c1CCCC2=O`, the figure is 241 to 243 °C; as for `CCc1nc2cc(N(C)C)c(Cl)cc2n1-c1ccc(CCNC(=O)NS(=O)(=O)c2ccc(C)cc2)cc1`, 108 to 114 °C; as for `N#Cc1cccc(Cl)c1-c1[nH]c(=O)c(-c2ccccc2)cc1C(=O)O`, 279 °C.
For the compound `CCOC(=O)c1c(-c2ccccc2)c2ccc(OC)cc2[nH]c1=O`, the melting point fell in the range of 175 to 177 °C.
As for `Fc1ccccc1-c1cn([C@H]2CN3CCC2CC3)nn1`, the melting point was 94 °C.
As for `CN(C)N1C(=O)c2ccccc2NS1(=O)=O`, the figure is 168 °C; as for `CN(C)C(=O)Nc1snc(N(C)C)c1C#N`, 203 to 204 °C; as for `CCOCCOCCOc1ccc(C(=O)OC)cc1F`, 33 to 36.5 °C.
`CC(C)(C)c1cc(CCC(CCc2cc(C(C)(C)C)c(O)c(C(C)(C)C)c2)OC(=O)c2ccccc2)cc(C(C)(C)C)c1O` displayed a melting point of 115 to 116 °C.
As for `Cc1n[nH]c(C)c1Cc1cc(Cl)cc(Cl)c1`, the figure is 133 to 134 °C.
`CCCCc1ccc(NC(=O)CBr)c([N+](=O)[O-])c1` gave a melting point of 56 to 57 °C.
In turn, `CCc1nnc(N2N=C(c3ccc([N+](=O)[O-])cc3)c3cc4c(cc3C[C@H]2C)OCO4)s1` showed a melting point of 105 °C.
Under `CCCCCCCCCCCCCCCCOC(=O)c1ccc(-c2ncc[nH]2)nc1` stands 97 to 98 °C.
As for `OC(CNc1ccc(Cl)cc1Cl)Cn1ccnc1` (centres undefined), the figure is 107 to 109 °C.
Regarding `O=C(CNC1=Nc2ccc(Cl)cc2C(c2ccccc2Cl)=NC1)CN1C(=O)c2ccccc2C1=O`, the melting point is 180 to 190 °C.
As for `COC(=O)c1nc(NCC(O)CO)cnc1[N+](=O)[O-]` (centres undefined), the figure is 107 to 109 °C; as for `O=C(c1cc(C(F)(F)F)cc(C(F)(F)F)c1)N1CCN(CCCC2(c3ccc(F)cc3)OCCO2)C[C@H]1Cc1c[nH]c2ccccc12`, 145 to 146 °C; as for `Oc1ccc(-c2cccc(Cl)c2)cc1`, 98 to 101 °C.
For the compound `O=C1Nc2ccccc2Oc2cscc21`, the melting point lay within 240 to 241 °C.
In the case of `C=CCC1COC(CC)(CC(=O)O)c2[nH]c3c(C)c(F)ccc3c21` (centres undefined), the melting point was in the range of 138 to 140 °C.
`CC(=O)NC1CCN(c2cccc(Sc3ccccc3)n2)CC1` displayed a melting point of 110 to 112 °C.
Under `Cc1cc(C)cc(C(=O)N2CCN(C(=O)CNC3CCN(Cc4ccc(-c5ccccc5)cc4)CC3)C(c3ccc(Cl)c(Cl)c3)C2)c1` (racemic) stands 87 to 89 °C; under `CCCCCCCc1ccc(-c2cnc([C@H]3CC[C@H](C#N)CC3)nc2)cc1`, 83.5 °C.
`Cn1cc(CN2C(=O)C3(COc4cc5c(cc43)OCO5)c3ccccc32)ccc1=O` (centres undefined) had a melting point of 115 to 118 °C.
Under `COC1C(O)CCC(O)(CSC)C1C1(C)OC1CC=C(C)C` (centres undefined) stands 52 to 53 °C.
As for `O=c1[nH]c2cc(Cl)ccc2c(O)c1-c1ccc(I)cc1`, the figure is above 350 °C; as for `COC(=O)c1cc(-c2ccc(F)cc2)oc1C`, 96 to 97 °C.
As for `CN(C)c1ccc(NC(=O)N(C[C@H]2CC[C@H](CN(C(=O)Nc3ccc(N(C)C)cc3)C3CCCCCC3)CC2)C2CCCCCC2)cc1`, the figure is 159 to 164 °C; as for `CCOP(=O)(Cc1ccc(C(=O)N2CCc3ccccc32)cc1)OCC`, 93 to 94.5 °C.
In turn, `c1cnc2[nH]cc(CN3CCc4ccc(-c5ccsc5)cc4C3)c2c1` gave a melting point of 228 to 230 °C.
Under `CCOC(=O)C(=NNc1ccc(Cl)cc1)C(C)=O` stands 84 to 85 °C; under `OC(CCN1CCN(c2ccccn2)CC1)COc1cccc(C(F)(F)F)c1` (centres undefined), 81 to 81.5 °C; under `CC1C(=O)CC(C)C(C#N)C1=O` (centres undefined), 178 to 179 °C.
As for `O=C(NN1CCCCCC1)C(CS)Cc1ccccc1` (centres undefined), the figure is 82 °C; as for `O=C(O)CCNC(=O)C(=Cc1ccccc1)CS`, 80 °C.
The compound `Cc1ccc(OS(=O)(=O)c2ccc(N3CCN(C)C3=O)cc2)cc1` had a melting point of 155 to 157 °C.
Under `CCc1nc(C2CCCC2)n2nc(-c3ccc(OC)c(S(=O)(=O)N4CCOCC4)c3)[nH]c(=O)c12` stands 204 °C; under `Clc1ccc2c(c1)C(Cl)c1ccccc1CO2` (centres undefined), 125 to 127 °C; under `Cc1ncc2n1-c1ccc(Cl)cc1C(c1ccccc1F)NC2` (centres undefined), 200 to 203 °C.
As for `C[C@]1(COc2ccc(N3CCC(Nc4cc(Cl)cc(Cl)c4)CC3)cc2)Cn2cc([N+](=O)[O-])nc2O1`, the figure is 122 to 124 °C; as for `CCOc1ccc(OCC)c(C=O)c1`, 60 to 61 °C; as for `COc1cccc(C(O)CN(C)Cc2cc3c(=O)c(C(=O)NCc4ccc(Cl)cc4)cn(C)c3o2)c1` (centres undefined), 116 to 120 °C.
Under `O=c1[nH]c2cc(Cl)cc(Cl)c2c(O)c1Sc1ccccc1Cl` stands 285 to 288 °C; under `COc1ccc(S(=O)(=O)Nc2ccc([C@@H](C)C(N)=O)cc2)cc1`, 118 to 120 °C; under `C=C(C)COc1cc(C)c(NC(C)=O)c(C)c1C`, 149 to 150 °C.
`CC(N)C(=O)Nc1ccc([N+](=O)[O-])cc1C(=O)c1ccccc1Cl` (single isomer, unassigned; (+)): the melting point is 132 °C.
As to `COc1ccc(C2CCCN(C(=O)C(F)(F)F)C2)cc1` (centres undefined), the melting point turned out to be 88 °C.
For the compound `COc1ncc(Br)c2nc(S(=O)(=O)Nc3c(Cl)cccc3Cl)nn12`, the melting point lay in the range of 196 to 198 °C.
Under `O=C(O)c1cc2cc(OCCNC[C@H](O)COc3ccccc3)ccc2s1` stands 261 to 262 °C.
Under `CCCCN(CC)c1cc(C)nc(Sc2c(C)cc(C)cc2C)c1` stands 110 to 112 °C; under `Cc1cc(I)ccc1Nc1c(-c2nnco2)ccc(F)c1F`, 144 to 146 °C.
For `Cc1c(C(F)(F)F)noc1OCC(=O)O`, the melting point was 73.5 to 76 °C.
As for `C#CCCCCOc1cc(C=O)ccc1OC`, the figure is 66 to 67 °C; as for `CN(C(CCn1c(=O)cc(Cl)[nH]c1=O)C(=O)NO)S(=O)(=O)c1ccc(Oc2cccc(F)c2)cc1` (centres undefined), 147 to 148 °C; as for `O=C(O)Cc1ccc(SCCNC(=O)C2Cc3ccccc3N2S(=O)(=O)c2ccc(-c3cccc(C(F)(F)F)c3)cc2)c(Cl)c1` (centres undefined), 70 °C.
Under `CC(C)c1cccc(CN2C[C@H](CO)OC2=O)c1` stands 75 to 77 °C; under `Nc1ncc2c(n1)N(c1cccc(CCO)c1)C(=O)N(c1ccccc1Br)C2`, 154 °C.
Under `CCOC(=O)c1ccc(NC(=O)c2ccccc2C)cc1` stands 110 to 115 °C; under `CC(C)(C)c1ccc(CI)cc1[N+](=O)[O-]`, 98 to 99 °C; under `CNC(=O)c1ccccc1Nc1nc(Nc2cc3c(cc2OC)CCOC(=O)N3C)ncc1Cl`, 256 to 258 °C.
Turning to `CCOC(=O)NC(=S)Nc1nnc(-c2cc(C(C)(C)C)c(O)c(C(C)(C)C)c2)s1`, the melting point is above 250 °C.
`N#CNc1nc2c(s1)Cc1cc(Cl)ccc1-2`: the melting point was determined as 225 °C.
On to `FC(F)(F)c1cc(Cl)c(-n2cc(C3CC3(Br)Br)c(C=C(Br)Br)n2)c(Cl)c1` (centres undefined), for which the melting point is 106 to 107 °C.
As for `CCOC(=O)c1cc2cccc([N+](=O)[O-])c2n1COC`, the figure is 62 to 63 °C; as for `CN(C)c1nc2sc3c(NCCCN4CCCC4=O)ncnc3c2c2c1CC(C)(C)C2`, 184 to 186 °C; as for `CCOC(=O)Cc1ccc(NC(=O)C(CO)NS(=O)(=O)c2ccc(Br)cc2)cc1` (racemic), 149 to 150 °C.
In the case of `O=C(O)c1ccccc1NCCCc1ccccc1`, the melting point is 103 to 105 °C.
As for `CC(Cc1cccc(NC(N)=O)c1)NC=O` (centres undefined), the figure is 133 to 136 °C.
